By Ki is commonly meant the dissociation constant of the complex between target and ligand, obtained from inhibition or displacement.

Sequence of Cy5-labelled Mcl1 (amino acids 171-321) C286S protein (Q07820 171-321 C286S): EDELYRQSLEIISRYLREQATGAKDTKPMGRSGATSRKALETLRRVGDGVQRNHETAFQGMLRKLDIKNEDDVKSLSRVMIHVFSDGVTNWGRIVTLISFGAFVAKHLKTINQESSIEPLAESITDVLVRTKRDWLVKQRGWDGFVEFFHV

The target of the assay is Cy5-labelled Mcl1 (amino acids 171-321) C286S protein (UniProtKB Q07820) (Homo sapiens (Human), UniProt Q07820, C286S). Description: Inhibition of Mcl-1 by the fluorescence quenching assay (Example A, Method B). The format is binding. The text has this: Fluorescence quenching assay measures the change fluorescence intensity of C-terminally Cy5-labelled Mcl1 (amino acids 171-321) C286S protein (UniProtKB® primary accession number Q07820) having an amino acid sequence:
which is linked at the C-terminus to the amino acid X which corresponds to a cysteine labelled on the sulfur with sulpho-Cyanine5 from Lumiprobe GmbH catalogue number 13380, upon binding of a C-terminally labelled peptide derived from PUMA (UniProtKB® primary accession number Q9BXH1) having an amino acid sequence:
which is linked at the C-terminus to the amino acid X′, where X′ is cysteine labelled on the sulfur with TQ5WS from AAT Bioquest catalogue number 2079.
The addition of a compound which binds competitively to the same site as the peptide will result in an increase in the fluorescence intensity of the protein due to displacement of the fluorescence quencher.
An 11-point serial dilution of each compound was prepared in DMSO, the final buffer conditions were 10 mM 4-(2-hydroxyethyl)-1-piperazineethanesulfonic acid [HEPES], 150 mM NaCl, 0.05% Tween 20, pH 7.4 and 5% DMSO. The final protein concentration in the assay was 1 nM with the peptide present at 10, 20 or 400 nM. The experiments were incubated for 2 hours at room temperature before fluorescence intensity was measured on a Biotek SynergyNeo plate reader (Excitation 620 nm, emission 680 nm). The dose response curves were plotted with XL-Fit software using a 4-Parameter Logistic Model (Sigmoidal DoseResponse Model) and the inhibitory concentrations that gave a 50% increase in fluorescence intensity was determined (IC50). The Ki values were determined from the IC50 values according to Cer et al, Nucleic Acids Res, 2009, 37 (WebServer issue): W441-W445. Inhibition constants (Ki) are determined from complete binding inhibition curves (cKi) or from estimated from incomplete binding inhibition curves (eKi) in most cases due to low activity.
For the compound `O=C(O)[C@]1(Nc2cccc(Cl)c2)CC[C@@]2(CC1)c1ccccc1C[C@@H]2CCCOc1cccc2[nH]ccc12` [Example 486, (1r,2′S,4S)-4-(3-chloroanilino)-2′-{3-[(1H-indol-4-yl)oxy]propyl}-2′,3′-dihydrospiro[cyclohexane-1,1′-indene]-4-carboxylic acid], the Ki turned out to be 82 nM. On to `Cc1cc(OCCC[C@@H]2Cc3ccccc3[C@]23CC[C@@](Nc2cccc(Cl)c2)(C(=O)O)CC3)c2cc[nH]c2c1` [Example 487, (1r,2′R,4R)-4-(3-chloroanilino)-2′-{3-[(6-methyl-1H-indol-4-yl)oxy]propyl}-2′,3′-dihydrospiro[cyclohexane-1,1′-indene]-4-carboxylic acid], for which the Ki stood at 72.9 nM. As for `Cc1cc(OCCC[C@H]2Cc3ccccc3[C@]23CC[C@@](Nc2cccc(Cl)c2)(C(=O)O)CC3)c2cc[nH]c2c1` [Example 488, (1r,2′S,4S)-4-(3-chloroanilino)-2′-{3-[(6-methyl-1H-indol-4-yl)oxy]propyl}-2′,3′-dihydrospiro[cyclohexane-1,1′-indene]-4-carboxylic acid], the figure is 152 nM. On to `Cc1ccc2[nH]ccc2c1OCCC[C@@H]1Cc2ccccc2[C@]12CC[C@@](Nc1cccc(Cl)c1)(C(=O)O)CC2` [Example 489, (1r,2′R,4R)-4-(3-chloroanilino)-2′-{3-[(5-methyl-1H-indol-4-yl)oxy]propyl}-2′,3′-dihydrospiro[cyclohexane-1,1′-indene]-4-carboxylic acid], for which the Ki worked out at 76 nM. As for `Cc1ccc2[nH]ccc2c1OCCC[C@H]1Cc2ccccc2[C@]12CC[C@@](Nc1cccc(Cl)c1)(C(=O)O)CC2` [Example 490, (1r,2′S,4S)-4-(3-chloroanilino)-2′-{3-[(5-methyl-1H-indol-4-yl)oxy]propyl}-2′,3′-dihydrospiro[cyclohexane-1,1′-indene]-4-carboxylic acid], the figure is 61.8 nM; as for `O=C(O)[C@]1(Nc2cccc(Cl)c2)CC[C@@]2(CC1)c1ccccc1CC2CC(F)(F)COc1ccnc2c1CCC2` (stereo partly drawn) [Example 503, (1r,4r)-4-(3-chloroanilino)-2′-{3-[(6,7-dihydro-5H-cyclopenta[b]pyridin-4-yl)oxy]-2,2-difluoropropyl}-2′,3′-dihydrospiro[cyclohexane-1,1′-indene]-4-carboxylic acid], 63.8 nM. Consider `CC[C@@H](COc1ccnc2ccsc12)C[C@H]1Cc2ccccc2[C@]12CC[C@@](Nc1cccc(Cl)c1)(C(=O)O)CC2` [Example 538, (1r,2′S,4S)-4-(3-chloroanilino)-2′-[(2R)-2-{[(thieno[3,2-b]pyridin-7-yl)oxy]methyl}butyl]-2′,3′-dihydrospiro[cyclohexane-1,1′-indene]-4-carboxylic acid], for which the Ki stood at 9.15 nM. As for `CC[C@@H](COc1ccnc2ccsc12)C[C@@H]1Cc2ccccc2[C@]12CC[C@@](Nc1cccc(Cl)c1)(C(=O)O)CC2` [Example 539, (1r,2′R,4R)-4-(3-chloroanilino)-2′-[(2R)-2-{[(thieno[3,2-b]pyridin-7-yl)oxy]methyl}butyl]-2′,3′-dihydrospiro[cyclohexane-1,1′-indene]-4-carboxylic acid], the figure is 25.4 nM; as for `CC[C@H](COc1ccncc1)C[C@@H]1Cc2ccccc2[C@]12CC[C@@](Nc1cccc(Cl)c1)(C(=O)O)CC2` [Example 543, (1r,2′R,4R)-4-(3-chloroanilino)-2′-[(2S)-2-{[(pyridin-4-yl)oxy]methyl}butyl]-2′,3′-dihydrospiro[cyclohexane-1,1′-indene]-4-carboxylic acid], 126 nM; as for `CC(C)(C)OC(=O)N1CCC(CC2=Cc3ccccc3[C@]23CC[C@@](Nc2cccc(Cl)c2)(C(=O)O)CC3)CC1` [Example 558, (1r,4r)-2′-{[1-(tert-butoxycarbonyl)piperidin-4-yl]methyl}-4-(3-chloroanilino)spiro[cyclohexane-1,1′-indene]-4-carboxylic acid], 549 nM. As for `C[C@@H](CNc1ccncc1)C[C@@H]1Cc2ccccc2[C@]12CC[C@@](Nc1cccc(Cl)c1)(C(=O)O)CC2` [Example 574, (1r,2′R,4R)-4-(3-chloroanilino)-2′-{(2R)-2-methyl-3-[(pyridin-4-yl)amino]propyl}-2′,3′-dihydrospiro[cyclohexane-1,1′-indene]-4-carboxylic acid], the figure is 221 nM; as for `CCc1cnccc1OC[C@H](C)C[C@H]1Cc2ccccc2[C@]12CC[C@@](Nc1cccc(Cl)c1)(C(=O)O)CC2` [Example 588, (1r,2′S,4S)-4-(3-chloroanilino)-2′-{(2R)-3-[(3-ethylpyridin-4-yl)oxy]-2-methylpropyl}-2′,3′-dihydrospiro[cyclohexane-1,1′-indene]-4-carboxylic acid], 2.68 nM; as for `C[C@@H](COc1cccc2[nH]ccc12)CC1Cc2ccccc2[C@]12CC[C@@](Nc1cccc(Cl)c1)(C(=O)O)CC2` (stereo partly drawn) [Example 594, (1r,4R)-4-(3-chloroanilino)-2′-{(2R)-3-[(1H-indol-4-yl)oxy]-2-methylpropyl}-2′,3′-dihydrospiro[cyclohexane-1,1′-indene]-4-carboxylic acid], 44.1 nM. As to `C[C@H](C[C@H]1Cc2ccccc2[C@]12CC[C@@](Nc1cccc(Cl)c1)(C(=O)O)CC2)[C@@H](C)Oc1ccnc2c1CCC2` [Example 616, (1r,2′S,4S)-4-(3-chloroanilino)-2′-{(2R,3R)-3-[(6,7-dihydro-5H-cyclopenta[b]pyridin-4-yl)oxy]-2-methylbutyl}-2′,3′-dihydrospiro[cyclohexane-1,1′-indene]-4-carboxylic acid], the Ki turned out to be 12.1 nM. Turning to `C[C@@H](COc1ccnc2c1CCC2(C)O)C[C@H]1Cc2ccccc2[C@]12CC[C@@](Nc1cccc(Cl)c1)(C(=O)O)CC2` (stereo partly drawn) [Example 618, (1r,2′S,4S)-4-(3-chloroanilino)-2′-{(2R)-3-[(7-hydroxy-7-methyl-6,7-dihydro-5H-cyclopenta[b]pyridin-4-yl)oxy]-2-methylpropyl}-2′,3′-dihydrospiro[cyclohexane-1,1′-indene]-4-carboxylic acid], the Ki worked out at 42.6 nM. For `C[C@@H](COc1ccnc2c1CCCCC2)CC1=Cc2ccccc2[C@]12CC[C@@](Nc1cccc(Cl)c1)(C(=O)O)CC2` [Example 632, (1r,4R)-4-(3-chloroanilino)-2′-{(2R)-2-methyl-3-[(6,7,8,9-tetrahydro-5H-cyclohepta[b]pyridin-4-yl)oxy]propyl}spiro[cyclohexane-1,1′-indene]-4-carboxylic acid], the Ki worked out at 6.01 nM. As to `Cc1cnc2c(c1OC[C@H](C)C[C@H]1Cc3ccccc3[C@]13CC[C@@](Nc1cccc(Cl)c1)(C(=O)O)CC3)CCCC2` [Example 649, (1r,2′S,4S)-4-(3-chloroanilino)-2′-{(2R)-2-methyl-3-[(3-methyl-5,6,7,8-tetrahydroquinolin-4-yl)oxy]propyl}-2′,3′-dihydrospiro[cyclohexane-1,1′-indene]-4-carboxylic acid], the Ki amounted to 6.36 nM. With `Cc1cc(C(C)O)cc2c1CC(C[C@@H](C)COc1ccnc3c1[C@H](C)CCC3)[C@]21CC[C@](Nc2cccc(Cl)c2)(C(=O)O)CC1` (stereo partly drawn) [Example 761, (1r,4R)-4-(3-chloroanilino)-6′-(1-hydroxyethyl)-4′-methyl-2′-[(2R)-2-methyl-3-{[(5R)-5-methyl-5,6,7,8-tetrahydroquinolin-4-yl]oxy}propyl]-2′,3′-dihydrospiro[cyclohexane-1,1′-indene]-4-carboxylic acid], the Ki was 65.3 nM.

The values are drawn from patent US20240150293A1, “SPIROCYCLOHEXANE DERIVATIVES, PHARMACEUTICAL COMPOSITIONS CONTAINING THEM AND THEIR USES AS ANTI-APOPTOTIC INHIBITORS” (LES LABORATOIRES SERVIER, priority 2021, published 2024).
